Key:
[1] = target: T1, Bifunctional epoxide hydrolase 2 (Homo sapiens, UniProt P34913)
T1 sequence (P34913 whole entry): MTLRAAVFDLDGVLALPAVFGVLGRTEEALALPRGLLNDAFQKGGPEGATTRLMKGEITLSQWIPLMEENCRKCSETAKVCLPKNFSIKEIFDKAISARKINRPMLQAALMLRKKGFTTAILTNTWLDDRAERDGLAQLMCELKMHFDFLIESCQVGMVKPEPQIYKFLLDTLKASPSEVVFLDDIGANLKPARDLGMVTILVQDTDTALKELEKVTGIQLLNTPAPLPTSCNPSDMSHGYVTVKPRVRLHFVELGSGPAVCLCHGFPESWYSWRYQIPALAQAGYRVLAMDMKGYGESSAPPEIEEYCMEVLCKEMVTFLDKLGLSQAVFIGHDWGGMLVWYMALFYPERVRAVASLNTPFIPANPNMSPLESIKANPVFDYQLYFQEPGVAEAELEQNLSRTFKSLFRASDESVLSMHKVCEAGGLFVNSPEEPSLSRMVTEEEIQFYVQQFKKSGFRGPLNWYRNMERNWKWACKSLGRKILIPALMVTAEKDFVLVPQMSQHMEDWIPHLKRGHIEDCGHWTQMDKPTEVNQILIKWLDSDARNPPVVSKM
Description: Inhibition of human recombinant sEH using PHOME as substrate measured after 10 mins by fluorescent based assay

[2] = target: T2, Bifunctional epoxide hydrolase 2 (Mus musculus, UniProt P34914)
T2 sequence (P34914 whole entry): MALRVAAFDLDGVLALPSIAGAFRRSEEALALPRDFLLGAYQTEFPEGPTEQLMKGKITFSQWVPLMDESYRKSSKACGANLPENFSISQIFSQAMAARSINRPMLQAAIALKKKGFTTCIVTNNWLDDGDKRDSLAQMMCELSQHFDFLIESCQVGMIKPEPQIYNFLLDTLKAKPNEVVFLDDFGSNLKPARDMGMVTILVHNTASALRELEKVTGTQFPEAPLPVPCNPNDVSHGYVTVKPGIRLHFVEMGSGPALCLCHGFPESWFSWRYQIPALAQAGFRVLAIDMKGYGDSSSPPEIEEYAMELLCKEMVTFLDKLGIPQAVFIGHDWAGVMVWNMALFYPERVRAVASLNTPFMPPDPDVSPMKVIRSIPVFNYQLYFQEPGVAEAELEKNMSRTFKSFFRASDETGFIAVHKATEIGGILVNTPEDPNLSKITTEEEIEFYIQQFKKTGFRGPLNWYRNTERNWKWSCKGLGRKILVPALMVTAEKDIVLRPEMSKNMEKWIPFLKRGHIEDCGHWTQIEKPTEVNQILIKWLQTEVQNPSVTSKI
Description: Inhibition of mouse recombinant sEH using PHOME as substrate measured after 10 mins by fluorescent based assay

[3] = Acute toxicity in ICR mouse assessed as body weight at 100 mg/kg, ip administered as single dose observed for 14 days; assay type: organism-based; conditions: in vivo, 336 h, time 14 day
[4] = Reversible toxicity in ICR mouse assessed as eye secretion at 100 mg/kg, ip administered as single dose observed for 14 days; assay type: organism-based; conditions: in vivo, 336 h, time 14 day
[5] = AUC (0 to 24 hrs) in Sprague-Dawley rat at 30 mg/kg, po administered as single dose upto 24 hrs by LC-MS analysis; assay type: ADME, organism-based; parameters: route oral, dose 30 mg/kg, time <=24; conditions: in vivo
[6] = Volume of distribution in Sprague-Dawley rat at 30 mg/kg, po administered as single dose upto 24 hrs by LC-MS analysis; assay type: ADME, organism-based; conditions: in vivo
[7] = Cmax in Sprague-Dawley rat at 3 mg/kg, iv administered as single dose upto 24 hrs by LC-MS analysis; assay type: ADME, organism-based; parameters: route intravenous, dose 3 mg/kg, time <=24; conditions: in vivo
[8] = Clearance in Sprague-Dawley rat at 30 mg/kg, po administered as single dose upto 24 hrs by LC-MS analysis; assay type: ADME, organism-based; conditions: in vivo
[9] = AUC (0 to infinity) in Sprague-Dawley rat at 30 mg/kg, po administered as single dose upto 24 hrs by LC-MS analysis; assay type: ADME, organism-based; parameters: route oral, dose 30 mg/kg, time <=24; conditions: in vivo
[10] = Cmax in Sprague-Dawley rat at 30 mg/kg, po administered as single dose upto 24 hrs by LC-MS analysis; assay type: ADME, organism-based; parameters: route oral, dose 30 mg/kg, time <=24; conditions: in vivo
[11] = AUC (0 to 24 hrs) in Sprague-Dawley rat at 3 mg/kg, iv administered as single dose upto 24 hrs by LC-MS analysis; assay type: ADME, organism-based; parameters: route intravenous, dose 3 mg/kg, time <=24; conditions: in vivo
[12] = Microsomal stability in human liver microsomes assessed as substrate remaining in presence of NADPH measured after 60 mins by LC-MS/MS analysis; conditions: 1 h
[13] = Microsomal stability in human liver microsomes assessed as substrate remaining in presence of NADPH measured after 5 mins by LC-MS/MS analysis
[14] = Microsomal stability in human liver microsomes assessed as substrate remaining in presence of NADPH measured after 30 mins by LC-MS/MS analysis; conditions: 0.5 h
[15] = Microsomal stability in human liver microsomes assessed as substrate remaining in presence of NADPH measured after 10 mins by LC-MS/MS analysis
[16] = Clearance in Sprague-Dawley rat at 3 mg/kg, iv administered as single dose upto 24 hrs by LC-MS analysis; assay type: ADME, organism-based; conditions: in vivo
[17] = Microsomal stability in human liver microsomes assessed as substrate remaining in presence of NADPH measured after 20 mins by LC-MS/MS analysis
[18] = Volume of distribution in Sprague-Dawley rat at 3 mg/kg, iv administered as single dose upto 24 hrs by LC-MS analysis; assay type: ADME, organism-based; conditions: in vivo
Mus musculus [19] = test: Effect on C57BL/6 mouse model of LPS induced sepsis assessed as survival rate in 24 hrs at 5 mg/kg, ip (reference value: 71.4%); assay type: functional; conditions: C57BL/6, ip
Mus musculus [20] = test: Effect on C57BL/6 mouse model of LPS induced sepsis assessed as survival rate in 72 hrs at 5 mg/kg, ip (reference value: 28.6%); assay type: functional; conditions: C57BL/6, ip

SMILES | IC50 [1] | IC50 [2] | other results
O=C(Nc1ccc(C(=O)NC2CCCCC2)cc1)NC12CC3CC(CC(O)(C3)C1)C2 | 796 nM | 94.2 nM | 
CC12CC3CC(C)(C1)CC(NC(=O)CCC(=O)N1CCCCC1)(C3)C2 | 2470 nM | 21700 nM | 
CC12CC3CC(C)(C1)CC(NC(=O)CCCC(=O)N1CCCCC1)(C3)C2 | 5930 nM | 5840 nM | 
O=C(Nc1ccc(C(=O)NC2CCCCC2)cc1)NC1C2CC3CC1CC(O)(C3)C2 (centres undefined) | 493 nM | 463 nM | 
CC12CC3CC(C)(C1)CC(NC(=O)Nc1ccc(C(=O)NC4CCCCC4)cc1)(C3)C2 | 2.3 nM | 0.4 nM | Activity [3]: Non-Toxic
CC(C)CNC(=O)c1ccc(NC(=O)NC23CC4CC(C)(CC(C)(C4)C2)C3)cc1 | 0.7 nM | 0.4 nM | Activity [3]: Non-Toxic
CC12CC3CC(C)(C1)CC(NC(=O)CCC(=O)NC1CCCCC1)(C3)C2 | 7890 nM | 180 nM | 
CC(C)CNC(=O)c1ccc(NC(=O)NC2C3CC4CC(C3)CC2C4)cc1 (centres undefined) | 0.9 nM | 0.4 nM | Activity [3]: Non-Toxic; Activity [4]: Toxic
CC(C)CNC(=O)/C=C/C(=O)NC12CC3CC(C)(CC(C)(C3)C1)C2 | 9620 nM | 21100 nM | 
CC12CC3CC(C)(C1)CC(NC(=O)/C=C/C(=O)NC1CCCCC1)(C3)C2 | 24400 nM | 5520 nM | 
CC(C)CNC(=O)CCC(=O)NC(C)C12CC3CC(CC(C3)C1)C2 (centres undefined) | 50.8 nM | 43.5 nM | 
CC(C)CNC(=O)CCCC(=O)NC1C2CC3CC1CC(O)(C3)C2 (centres undefined) | 41.6 nM | 106 nM | 
CC12CC3CC(C)(C1)CC(NC(=O)CCCC(=O)NC1CCCCC1)(C3)C2 | 1590 nM | 8.3 nM | 
CC(C)CNC(=O)c1ccc(NC(=O)NC(C)C23CC4CC(CC(C4)C2)C3)cc1 (centres undefined) | 59.8 nM | 28.8 nM | 
CC(NC(=O)Nc1ccc(C(=O)N2CCCCC2)cc1)C12CC3CC(CC(C3)C1)C2 (centres undefined) | 3.9 nM | 2.4 nM | 
O=C(Nc1ccc(C(=O)N2CCCCC2)cc1)NC12CC3CC(CC(O)(C3)C1)C2 | 120 nM | 88.8 nM | 
O=C(Nc1ccc(C(=O)N2CCCCC2)cc1)NC1C2CC3CC1CC(O)(C3)C2 (centres undefined) | 217 nM | 497 nM | 

SMILES | IC50 [1] | IC50 [2] | other results
CC(NC(=O)Nc1ccc(C(=O)NC2CCCCC2)cc1)C12CC3CC(CC(C3)C1)C2 (centres undefined) | 217 nM | 13.7 nM | 
CC(C)CNC(=O)CCCC(=O)NC1C2CC3CC(C2)CC1C3 (centres undefined) | 3580 nM | 2270 nM | 
CC12CC3CC(C)(C1)CC(NC(=O)c1ccc(C(=O)NC4CCCCC4)cc1)(C3)C2 | 6290 nM | 1020 nM | 
CC(C)CNC(=O)CCCC(=O)NC12CC3CC(C)(CC(C)(C3)C1)C2 | 6230 nM | 225 nM | 
CC12CC3CC(C)(C1)CC(NC(=O)Nc1ccc(C(=O)N4CCCCC4)cc1)(C3)C2 |  |  | AUC(0-t) [5]: 1.3 µM·h; Vd [6]: 1097.8 L/kg; Cmax [7]: 3640 nM; CLH [8]: 4496.5 mL/min/kg; AUC [9]: 1.305 µM·h; Cmax [10]: 330 nM; AUC(0-t) [11]: 1.83 µM·h; residual activity [12]: 12.4%; residual activity [13]: 58.9%; residual activity [14]: 17.1%; residual activity [15]: 43%; CLH [16]: 71.7 mL/min/kg; residual activity [17]: 26.4%; Activity [4]: Toxic; Vd [18]: 7.83 L/kg
CC12CC3CC(C)(C1)CC(NC(=O)/C=C\C(=O)N1CCCCC1)(C3)C2 | 21500 nM | 81200 nM | 
O=C(Nc1ccc(C(=O)NC2CCCCC2)cc1)NC1C2CC3CC(C2)CC1C3 (centres undefined) | 1.4 nM | 0.4 nM | Activity [4]: Toxic
O=C(Nc1ccc(C(=O)N2CCCCC2)cc1)NC1C2CC3CC(C2)CC1C3 (centres undefined) | 0.4 nM | 0.4 nM | Activity [3]: Non-Toxic
CC(C)CNC(=O)c1ccc(NC(=O)NC23CC4CC(CC(O)(C4)C2)C3)cc1 | 949 nM | 291 nM | 
CC(C)CNC(=O)CCCC(=O)NC(C)C12CC3CC(CC(C3)C1)C2 (centres undefined) | 7320 nM | 694 nM | 
CC(C)CNC(=O)CCC(=O)NC12CC3CC(C)(CC(C)(C3)C1)C2 | 18900 nM | 4130 nM | 
CC(C)CNC(=O)c1ccc(NC(=O)NC2C3CC4CC2CC(O)(C4)C3)cc1 (centres undefined) | 249 nM | 2350 nM | 
CC12CC3CC(C)(C1)CC(NC(=O)c1ccc(C(=O)N4CCCCC4)cc1)(C3)C2 | 26400 nM | 60700 nM | 
CC(C)CNC(=O)c1ccc(C(=O)NC23CC4CC(C)(CC(C)(C4)C2)C3)cc1 | > 100000 nM | 6540 nM | 
CC(=O)N1CCC(NC(=O)NC23CC4CC(CC(C4)C2)C3)CC1 [AR9281] |  |  | Activity [4]: Toxic
C[C@@H]1C[C@H]2[C@@H]3CCC4=CC(=O)C=C[C@]4(C)[C@@]3(F)[C@@H](O)C[C@]2(C)[C@@]1(O)C(=O)CO [DEXAMETHASONE] |  |  | survival at 5 mg/kg (Mus musculus [19]): 100%; survival at 5 mg/kg (Mus musculus [20]): 100%

From ChEMBL document CHEMBL4840312, “Discovery of memantyl urea derivatives as potent soluble epoxide hydrolase inhibitors against lipopolysaccharide-induced sepsis” (Eur J Med Chem, 2021)
